Source: patent US20190127797A1, “BIOMARKERS FOR THE DIAGNOSIS OF INFLAMMATION-RELATED DISEASES” (UNIVERSITE DE BORDEAUX, priority 2016, published 2019)

Legend:
Assay type in all cases: cell-based, human
NLRC4 = NLRC4 expression by qPCR in primary monocytes; conditions: 100 μM, 6 hours, GAPDH-standardized, ratio relative to control
Protocol: (§1) FIG. 3. High levels of oxidative stress and increased nucleotide metabolites in IMH individuals can induce cytokine production and expression of inflammasome genes in primary monocytes. Broad-coverage metabolomics profiling was conducted on available serum samples from year 2011 (9 IML and 11 IMH individuals). […] Functional annotation and pathway analysis was conducted using MetPA. A significant enrichment for several metabolic pathways was identified for these metabolites (P<0.05) (a). Conversion of cysteine to cystine; and from arachidonic acid to 8-isoprostane, in the presence of ROS (b). Increased circulating levels of cystine and 8-isoprostane in IMH (b and c) indicate higher levels of oxidative stress (c and d). Adenine, DL-4-hydroxy-3-methoxymandelic acid (vanillylmandelate) (MMA), scyllo-inositol and N4-acetylcytidine (N4A) were selected based on their levels of significance (Q<0.001, see Table 5) and representing different metabolic pathways, to assess their ability to induce IL1FC and expression of NLRC4 in primary monocytes from four healthy donors (shown are the results of one representative experiment). Adenosine was used as a positive control. A significant induction of IL1FC is observed for adenosine and adenine, but not with other compounds (e). The highest dose of each compound (100 μM) was used to determine expression of NLRC4 and NLRP3 by qPCR on the same samples used for cytokine determination (e). […] As previously shown in mice, adenosine treatment up-regulates NLRP3 gene expression (P<0.01) (f). Expression of GAPDH was used to standardize the samples, and the results are expressed as a ratio relative to control. Error bars reflect experimental variability.
(§2) The dysfunction in nucleotide metabolism and in mitochondrial bioenergetics described above may explain the generation of circulating metabolites and chronic oxidative stress, respectively. To study whether the circulating metabolites found in higher levels in the sera from IMH compared to IML subjects up-regulate NLRC4 gene expression and/or cytokine production, four candidate compounds identified from our analysis were selected. They represent distinct metabolic pathways. These included adenine (purine metabolism), DL-4-hydroxy-3-methoxymandelic acid (vanillylmandelate) (phenylalanine and tyrosine metabolism), scyllo-inositol (inositol metabolism) and N4-acetylcytidine (N4A) (pyrimidine metabolism) (Table 5). Adenosine was included as a positive control for IL1FC production. Primary monocytes from four healthy donors were isolated from fresh […] blood and incubated with increasing concentrations of the indicated compounds for 6 hours. […] We also tested whether these stimulations lead to changes in the expression of NLRC4 and NLRP3 (used as a positive control for adenosine stimulation). […] More biochemical studies are necessary to address this.
(§3) Adenosine, adenine, DL-4-hydroxy-3-methoxymandelic acid, scyllo-inositol were all purchased form Sigma (Sigma-Aldrich, St. Louis, Mo.) and N4-acetylcytidine was purchased from Santa Cruz Biotechnology (Dallas, Tex.). Compounds were tested at the indicated concentrations on isolated monocytes from a healthy donor. […] Samples were then transferred to the Human Immune Monitoring Core at Stanford for quantification of cytokines, chemokines and growth factors using the 63-plex Luminex system, as described above. […]

NLRP3 = NLRP3 expression by qPCR in primary monocytes; conditions: 100 μM, 6 hours, GAPDH-standardized, ratio relative to control
Protocol: as §1, §2, §3

[1] = test system: differentiated THP-1 cells; experiment: Cytokine secretion (ELISA) from differentiated THP-1 cells; conditions: 6 hr; for production of IL-1β / production of IL-18 / production of TNF-α: without ATP pulse
Protocol: FIG. 4. N4-Acetylcytidine and Adenine induce the NLRC4 inflammasome. (a) Differentiated THP-1 cells were treated with ATP (5 mM, 30 min), or primed with LPS (1 μg/ml, 4 hr) and then pulsed with ATP; or treated with indicated concentrations (mM) of Adenine (Ad) or N4-Acetylcytidine (N4A) alone for 6 hr or (b) in combination, and then pulsed or not with ATP. Secretion of cytokines IL-1β, IL-18 and TNF-α were measured by ELISA from cell culture supernatants. (c) Differentiated THP-1 cells were treated with compounds as indicated (1 mM N4A; 300 μM Ad) for 6 hr or ATP 5 mM 30 min, cells were lysed and cell lysates were then immunoblotted with various antibodies to monitor expression of NLRs, Casp1, and prolL-1β. (d) Differentiated THP-1 cells were treated with compounds as before and cell lysates were submitted to immunoprecipitation with Biotinyl-YVAD-fmk peptide. Complexes were then recovered by using Streptavidin-sepharose beads and immunoblotted with anti-Caspase-1 p10 antibody. (e) Differentiated THP-1 cells were treated with compounds as before in the presence or not of Ac-YVAD-fmk or control DMSO, and IL-1β secretion was measured. (f) Differentiated WT or stable shTHP-1 cell lines were treated with compounds as before (1 mM N4A; 300 μM Ad) and IL-1β secretion was measured. To the right, western-blots showing protein expression of NLRC4 in stable shTHP-1 cell lines. (g) Bone marrow-derived macrophages from WT or KO mice as indicated were isolated and treated with combination of compounds (1 mM N4A; 300 μM Ad), and IL-1β secretion was measured. Data are expressed as concentration of cytokines (pg/ml) (mean±SD; n=3). * P<0.05, ** P<0.01.
In parallel experiments, differentiated THP-1 cells and a human monocytic cell Line were treated to address whether the metabolites N4A and adenine, alone or in combination, could induce inflammasome activation and cytokine secretion in vitro.
Adult male mice (12-18 week old) were divided into two groups: PBS or compound treated-mice (N4-Acetylcytidine+Adenine dissolved in PBS). Compound-treated mice were injected with N4-Acetylcytidine and Adenine (stock solution 20 mM each, 100 ul/25 g body weight, retro-orbital injection, once daily) or PBS. After 3 weeks of treatment, while they continued receiving daily injections of PBS or N4A+Adenine, mice from both groups were administered an infusion of human angiotensin II (AngII, #A9525, Sigma-Aldrich, St. Louis, Mo.) for another 2 weeks. Angll (140 ng/kg per min) was dissolved in 100 ul 20 mM (N4A+Adenine) or in 100 ul PBS and loaded into a small osmotic pump (Durect Corporation, Cupertino, Calif., USA). The osmotic pump was then implanted subcutaneously on the dorsal side around the neck of mice under anesthesia ([…]). Systolic blood pressure was measured every other day in conscious mice using tail-cuff plethysmography (Vistech System BP-2000, Apex, N.C., USA). Experiments with human THP-1 cells and primary blood platelets THP-1 monocytic cell lines were cultured in 6-well plates in RPMI media (supplemented with 10% Fetal Bovine Serum) and differentiated overnight with TPA (10 ng/ml). The day after, adherent cells were washed with fresh media and treated with agonists LPS ([…], 4 hrs) and ATP (5 mM, 30 min) or compounds Adenine/N4-Acetylcytidine at various concentrations.

primary monocytes = experiment: IL1FC (IL-1α, IL-1β) production in primary monocytes treated with metabolites; conditions: primary monocytes from four healthy donors, increasing concentrations, 6 hours
Protocol: as §1
The dysfunction in nucleotide metabolism and in mitochondrial bioenergetics described above may explain the generation of circulating metabolites and chronic oxidative stress, respectively. To study whether the circulating metabolites found in higher levels in the sera from IMH compared to IML subjects up-regulate NLRC4 gene expression and/or cytokine production, four candidate compounds identified from our analysis were selected. They represent distinct metabolic pathways. […]
as §3, with “Tex.).” for “Tex.). Compounds were tested at the indicated concentrations on isolated monocytes from a healthy donor.”

primary platelets = experiment: Platelet activation, CD61/CD62P membrane expression by flow cytometry; conditions: platelets of two healthy donors, 6 hrs at 37° C., various concentrations, CD61 and CD62P+
Protocol: Primary platelets were isolated from the blood of two donors and incubated for 6 hr at 37° C. with thrombin, or ADP, or various concentrations of Adenine or N4-Acetylcytidine. Platelet activation was monitored by measuring membrane expression of CD61 and CD62P by flow cytometry. Data are representative of at least three independent experiments with similar results. […] Thus, it was sought to determine whether [MUT] and adenine were able to activate human platelets in vitro. To do so, platelets were isolated from the blood of two healthy donors and incubated for 6 hrs at 37° C. with various concentrations of adenine or [MUT]. Thrombin, and ADP were used as controls and platelet activation was monitored by measuring membrane expression of CD61 and CD62P+ cells by flow cytometry. […] Human primary platelets were prepared from whole blood using a venepuncture in EDTA tube after a 20 min centrifugation at 1000 rpm without acceleration and break. Then the supernatant was harvested and 1 μM PGE1 was added. […] Platelets were then stimulated with thrombin (at 0.5 U/ml), ADP, or with the indicated concentrations of [MUT] or adenine, and activation was monitored by flow cytometry using 25 immunostaining of membrane markers with anti-CD61 (marker of platelet population), and anti-CD62-P (marker of activation involved in aggregation).

primary neutrophils = experiment: Primary neutrophil activation (RANKL, degranulation, IL-1β secretion); conditions: 24 hr, various concentrations
Protocol: (b) Primary neutrophils were isolated from blood of healthy donors and incubated for 24 hr with various concentrations of adenine or N4A alone or in combination, and RANK-L+ cells were determined within the CD66b+ population. (c) Primary neutrophils were treated with N4A (1 mM) and/or adenine (1 mM) and the % of degranulated population was measured for each donor. (d) Primary neutrophils were treated as before with compounds as indicated and IL-1β secretion was measured from cell culture supernatants for each donor. Data are expressed as concentration of cytokines (pg/ml), or as fold increase with respect to non-treated (NT) condition as indicated. * P<0.05, ** P<0.01
In addition, the frequencies of 22 different cell subsets in IMH and IML older adults (N=22) were estimated and in a separate analysis, such frequencies were compared between young and older adults (N=86). For these analyses Cibersort (Newman et al. Robust enumeration of cell subsets from tissue expression profiles. Nature Methods 12, 453-457, 2015) was used, which uses gene expression profiles to characterize cell subset composition in complex tissues, such as whole blood. Significant differences were found in the estimated frequencies of circulating mast cells, as well as in the CD4 T regulatory cell compartment between young and older adults (P<0.01). […]

[2] = then pulsed with ATP (5 mM, 30 min)

COc1cc(C(O)C(=O)O)ccc1O (racemic) [DL-4-hydroxy-3-methoxymandelic acid]
expression of NLRC4 (NLRC4): No effect | expression of NLRP3 (NLRP3): No effect

CC(=O)Nc1ccn([C@@H]2O[C@H](CO)[C@@H](O)[C@H]2O)c(=O)n1 [N4A, N4-acetylcytidine]
expression of NLRC4 (NLRC4): induced both NLRP3 and NLRC4 | expression of NLRP3 (NLRP3): induced both NLRP3 and NLRC4 | secretion of IL-1β [1, 2]: potently induced secretion | secretion of IL-18 [1, 2]: potently induced secretion | production of IL-1β [1]: neither incubation with adenine nor with N4A alone had an effect | production of IL-18 [1]: neither incubation with adenine nor with N4A alone had an effect | production of TNF-α [1]: neither incubation with adenine nor with N4A alone had an effect

Nc1ncnc2[nH]cnc12 [adenine]
IL-1α production (primary monocytes): significant increase | IL-1β production (primary monocytes): significant increase | expression of NLRC4 (NLRC4): No effect | expression of NLRP3 (NLRP3): No effect | production of IL-1β [1]: neither incubation with adenine nor with N4A alone had an effect | production of IL-18 [1]: neither incubation with adenine nor with N4A alone had an effect | production of TNF-α [1]: neither incubation with adenine nor with N4A alone had an effect | percentage of activated platelets (primary platelets): robustly induced a dose-dependent increase | RANKL+ cells within the CD66b population (primary neutrophils): induced a potent increase

Nc1ncnc2c1ncn2[C@@H]1O[C@H](CO)[C@@H](O)[C@H]1O [adenosine, reference compound]
IL-1α production (primary monocytes): significant increase | IL-1β production (primary monocytes): significant increase | expression of NLRC4 (NLRC4): no increase in NLRC4 was observed | expression of NLRP3 (NLRP3): increased expression of NLRP3

O[C@H]1[C@H](O)[C@@H](O)[C@H](O)[C@@H](O)[C@@H]1O [scyllo-inositol]
expression of NLRC4 (NLRC4): No effect | expression of NLRP3 (NLRP3): No effect
